The text below walks through data of patent publication US8754073B2, “Substituted piperazino-dihydrothienopyrimidines” (Boehringer Ingelheim International GmbH, priority 2007, dated 2014).

Each structure is given as a SMILES string.

Sequence of PDE4B (Q07343 whole entry, species assumed): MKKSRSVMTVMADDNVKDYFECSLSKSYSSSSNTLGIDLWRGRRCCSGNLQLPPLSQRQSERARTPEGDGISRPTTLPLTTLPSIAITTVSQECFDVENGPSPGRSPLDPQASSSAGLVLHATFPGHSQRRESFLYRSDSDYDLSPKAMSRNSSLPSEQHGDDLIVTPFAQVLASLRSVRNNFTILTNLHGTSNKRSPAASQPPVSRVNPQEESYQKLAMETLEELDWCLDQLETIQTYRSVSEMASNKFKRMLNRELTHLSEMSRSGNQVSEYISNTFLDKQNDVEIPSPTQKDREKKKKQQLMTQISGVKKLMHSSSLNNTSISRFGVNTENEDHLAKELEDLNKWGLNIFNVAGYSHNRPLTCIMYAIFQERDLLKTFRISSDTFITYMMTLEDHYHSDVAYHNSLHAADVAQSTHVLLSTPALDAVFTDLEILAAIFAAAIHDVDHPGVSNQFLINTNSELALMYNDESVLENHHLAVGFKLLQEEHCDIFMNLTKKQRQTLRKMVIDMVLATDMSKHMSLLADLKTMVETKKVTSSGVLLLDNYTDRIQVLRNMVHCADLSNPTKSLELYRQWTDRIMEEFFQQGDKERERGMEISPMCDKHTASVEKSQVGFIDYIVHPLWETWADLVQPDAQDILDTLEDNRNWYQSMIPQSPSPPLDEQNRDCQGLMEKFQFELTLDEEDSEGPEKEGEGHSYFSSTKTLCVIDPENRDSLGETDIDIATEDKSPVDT

In one assay the target is PDE4B (Homo sapiens, UniProt Q07343). As to the kind of experiment: Scintillation Proximity Assay (SPA) of PDE4B enzyme activity ([H3]-cAMP cleavage). Format: biochemical. The note with it: test substance 1 μM; one-hour incubation of [H3]-cAMP with PDE4B enzyme at 30° C. The method in brief:
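Percent inhibition at 1 μM compound, measured against an uninhibited reaction. PDE4B hydrolysed tritiated cAMP for one hour at 30 °C, then scintillator beads were added to capture [H3]-5′-AMP. Light events were counted after 45 min bead settling.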
On the technique in general: In a scintillation proximity assay essentially only radioactivity close to the scintillant gives light.
As usually defined, the inhibition is the share of the control response that was lost under treatment. Low values mean a response near the control, high ones a response far below the control. As for `[O-][S+]1CCc2nc(N3CCC(c4ccccc4F)CC3)nc(NC3(CO)CC3)c21` (stereo not shown) [Example 87], the inhibition at 1 µM was 92%.

`CN1C[C@@H](Nc2nc(N3CCC(O)(c4cc(F)cc(F)c4)CC3)nc3c2[S+]([O-])CC3)CCC1=O` (stereo partly shown) [Example 47] registered an inhibition at 1 µM of 97%.

Compound `CS(=O)(=O)N1CC2(CCN(c3nc4c(c(Nc5cccc(F)c5)n3)[S+]([O-])CC4)CC2)c2ccccc21` (stereo not shown) [Example 74] registered an inhibition at 1 µM of 95%.

In the case of `Cc1noc(C2CCN(c3nc4c(c(NC5CCOCC5)n3)[S+]([O-])CC4)CC2)n1` (stereo not shown) [Example 68], 1 µM produced 93% inhibition.

`CC(C)[C@H](CO)Nc1nc(N2CCC(c3ccc(Cl)cc3)CC2)nc2c1[S+]([O-])CC2` (stereo partly drawn) [Example 1, (R)-2-{2-[4-(4-chlorophenyl)-piperidin-1-yl]-5-oxo-6,7-dihydro-5H-5λ^4-thieno[3,2-d]pyrimidin-4-ylamino}-3-methylbutan-1-ol] displayed an inhibition at 1 µM of 93%.

`[O-][S+]1CCc2nc(N3CCC(c4ccc(F)cc4F)CC3)nc(NC3CCOCC3)c21` (stereo not shown) [Example 90, {2-[4-(2,4-Difluorophenyl)-Piperidin-1-Yl]-5-Oxo-6,7-Dihydro-5H-5λ^4-Thieno[3,2-d]Pyrimidin-4-Yl}-(Tetrahydropyran-4-Yl)-Amine] had an inhibition at 1 µM of 92%.

`CN1C[C@@H](Nc2nc(N3CCC(c4c[nH]c5ccccc45)CC3)nc3c2[S+]([O-])CC3)CCC1=O` (stereo partly shown) [Example 41] returned an inhibition at 1 µM of 97%.

Turning to `CN1C[C@@H](Nc2nc(N3CCC(c4cccc(O)c4)CC3)nc3c2[S+]([O-])CC3)CCC1=O` (stereo partly shown) [Example 46], the inhibition at 1 µM amounted to 97%.

On to `[O-][S+]1CCc2nc(N3CCC4(CC3)OCc3ccccc34)nc(NC3CCOCC3)c21` (stereo not shown) [Example 125], for which the inhibition at 1 µM amounted to 74%.

`[O-][S+]1CCc2nc(N3CCC(c4cccc(Cl)c4)CC3)nc(NC3(CO)CC3)c21` (stereo not shown) [Example 39] yielded an inhibition at 1 µM of 96%.

In turn, `CC(C)[C@H](CO)Nc1nc(N2CCC(c3cccc(O)c3)CC2)nc2c1[S+]([O-])CC2` (stereo partly shown) [Example 17] had an inhibition at 1 µM of 93%.

The assay is the same for the next values; noted with them: test substance 1 μM; one-hour incubation with [H3]-cAMP at 30° C.
`CN1C[C@@H](Nc2nc(N3CCC(C(=O)c4ccc(F)cc4)(c4ccc(F)cc4)CC3)nc3c2[S+]([O-])CC3)CCC1=O` (stereo partly shown) [Example 203, 5-{2-[4-(4-fluorobenzoyl)-4-(4-fluorophenyl)-piperidin-1-yl]-5-oxo-6,7-dihydro-5H-5λ^4-thieno[3,2-d]pyrimidin-4-ylamino}-1-methylpiperidin-2-one] yielded an inhibition at 1 µM of 96%.

In turn, `COC1(c2ccc(Cl)cc2)CCN(c2nc3c(c(N[C@H]4CCC(=O)N(C)C4)n2)[S+]([O-])CC3)CC1` (stereo partly shown) [Example 261, 5-{2-[4-(4-chlorophenyl)-4-methoxypiperidin-1-yl]-5-oxo-6,7-dihydro-5H-5λ^4-thieno[3,2-d]pyrimidin-4-ylamino}-1-methylpiperidin-2-one] yielded an inhibition at 1 µM of 95%.

As for `CN1C[C@@H](Nc2nc(N3CCC(C#N)(c4ccc(F)cc4)CC3)nc3c2[S+]([O-])CC3)CCC1=O` (stereo partly shown) [Example 294], at 1 µM the inhibition was 88%.

For `[O-][S+]1CCc2nc(N3CCC(Oc4ccc(Cl)cc4)CC3)nc(NC3CCOCC3)c21` (stereo not shown) [Example 271], the inhibition at 1 µM is 92%.

Take `[O-][S+]1CCc2nc(N3CCC(c4nc5cc(F)ccc5[nH]4)CC3)nc(NC3CCOCC3)c21` (stereo not shown) [Example 209]: 1 µM produced 95% inhibition.

As for `CN1C[C@@H](Nc2nc(N3CCC(CO)(c4ccc(Cl)cc4)CC3)nc3c2[S+]([O-])CC3)CCC1=O` (stereo partly shown) [Example 246, 5-{2-[4-(4-Chlorophenyl)-4-Hydroxymethylpiperidin-1-Yl]-5-Oxo-6,7-Dihydro-5H-5λ^4-Thieno[3,2-d]Pyrimidin-4-Ylamino}-1-Methyl Piperidin-2-One], the inhibition at 1 µM is 93%.

For the compound `[O-][S+]1CCc2nc(N3CCC(c4cc(-c5cccs5)[nH]n4)CC3)nc(NC3CCOCC3)c21` (stereo not shown) [Example 284], the inhibition at 1 µM was 83%.

In the case of `Cc1nn(C)cc1C(C)NC(=O)c1cccc(C2CCN(c3nc4c(c(NC5CCOCC5)n3)[S+]([O-])CC4)CC2)c1` (stereo not shown) [Example 251], testing at 1 µM gave an inhibition of 90%.
